For assay [1], the system named is BAEC. Nature of the assay: Inhibition of NO production in BAEC at 300 uM. As to conditions: Bos taurus. Format: functional, cell-based.
The subject of assay [2] is BAEC. Nature of the assay: Inhibition of NO production in BAEC assessed as inhibition of Ca2+ influx at 300 uM. To be noted: Bos taurus. It is filed as functional, cell-based.
Assay [3] addresses T1, Short transient receptor potential channel 5 (Homo sapiens) (UniProt Q9UL62).
T1 sequence (whole entry): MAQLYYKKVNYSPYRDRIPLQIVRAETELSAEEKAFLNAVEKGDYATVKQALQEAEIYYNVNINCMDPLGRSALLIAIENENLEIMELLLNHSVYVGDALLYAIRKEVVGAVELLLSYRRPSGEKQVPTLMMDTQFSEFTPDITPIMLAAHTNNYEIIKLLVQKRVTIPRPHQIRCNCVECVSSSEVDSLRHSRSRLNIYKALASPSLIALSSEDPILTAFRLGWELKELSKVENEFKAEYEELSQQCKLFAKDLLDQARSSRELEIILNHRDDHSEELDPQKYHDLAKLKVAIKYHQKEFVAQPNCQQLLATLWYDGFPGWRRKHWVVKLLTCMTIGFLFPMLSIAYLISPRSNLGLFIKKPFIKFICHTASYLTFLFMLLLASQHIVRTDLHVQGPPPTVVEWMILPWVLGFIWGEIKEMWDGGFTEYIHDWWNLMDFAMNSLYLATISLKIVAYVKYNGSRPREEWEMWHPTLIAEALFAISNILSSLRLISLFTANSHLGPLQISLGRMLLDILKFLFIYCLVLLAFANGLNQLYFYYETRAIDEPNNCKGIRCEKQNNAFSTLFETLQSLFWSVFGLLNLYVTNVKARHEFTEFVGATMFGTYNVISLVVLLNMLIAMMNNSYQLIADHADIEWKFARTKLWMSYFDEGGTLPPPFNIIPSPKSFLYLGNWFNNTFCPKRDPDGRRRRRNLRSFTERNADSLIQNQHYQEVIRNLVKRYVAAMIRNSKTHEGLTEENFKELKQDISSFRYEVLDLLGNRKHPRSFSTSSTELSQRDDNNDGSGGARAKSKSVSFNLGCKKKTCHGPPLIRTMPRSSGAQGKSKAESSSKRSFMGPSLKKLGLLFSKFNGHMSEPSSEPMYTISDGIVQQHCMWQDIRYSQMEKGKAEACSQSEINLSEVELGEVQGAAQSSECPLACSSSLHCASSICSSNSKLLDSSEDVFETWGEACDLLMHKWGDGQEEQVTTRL
Nature of the assay: Induction of S-nitrosylation of TRPC5 in HEK cells assessed as increase in Ca2+ level from extracellular space at 5 mM extracellular administration. As to conditions: HEK293. It is filed as cell-based.

The target in assay [4] is T1, Short transient receptor potential channel 5 (Homo sapiens). Nature of the assay: Induction of S-nitrosylation of TRPC5 in HEK cells assessed as increase in Ca2+ level from extracellular space at 50 uM. Format: cell-based. As to conditions: HEK293.
The target is the same in assay [5]. Nature of the assay: Induction of S-nitrosylation of TRPC5 in HEK cells assessed as increase in Ca2+ level from extracellular space at 5 mM. It is filed as cell-based. To be noted: HEK293.
In assay [6] the test system is DT40. Nature of the assay: Induction of P2Y mediated TRPC5 S-nitrosylation in chicken DT40 cells assessed as increase in Ca2+ level from extracellular space at 100 uM in presence of PLC-beta inhibitor U73122. It is filed as cell-based.
Assay [7] has as its target T1, Short transient receptor potential channel 5 (Homo sapiens). Nature of the assay: Induction of S-nitrosylation of TRPC5 in HEK cells assessed as inhibition of incorporation of DTNB-2Bio at 30 uM. Format: cell-based. To be noted: HEK293.
The subject of assay [8] is BAEC. Briefly: Inhibition of NO production in BAEC assessed as inhibition of Ca2+ influx at 10 mM. Format: functional, cell-based. To be noted: Bos taurus.
In assay [9] the target is T1, Short transient receptor potential channel 5 (Homo sapiens). Briefly: Induction of S-nitrosylation of TRPC5 in HEK cells assessed as increase in Ca2+ level from extracellular space at 10 uM. To be noted: HEK293. Format: cell-based.
Assay [10] has the same target. Briefly: Induction of S-nitrosylation of TRPC5 in HEK cells assessed as increase in Ca2+ level from extracellular space at 1 mM. Format: cell-based. As to conditions: HEK293.
Assay [11] has as its system BAEC. Briefly: Inhibition of NO production in BAEC assessed as inhibition of Ca2+ influx at 1 mM. It is filed as functional, cell-based. As to conditions: Bos taurus.

Molecules are shown by their SMILES. The source made the active and inactive calls. No cut-off for these calls is given here.

Regarding `COC(=O)[C@@H](N)CCCNC(=N)N[N+](=O)[O-]`, the inhibition entry in [1] and in [2] was “Active” throughout.
For `C[N+](C)(C)CCSS(C)(=O)=O`, the outcome in assay [3] was inactive.
Take `O=C(O)c1cc(SSc2ccc([N+](=O)[O-])c(C(=O)O)c2)ccc1[N+](=O)[O-]`: in assay [4], the result was Active.
As to `CC/C(=C\C(=N\O)C(N)=O)C(C)[N+](=O)[O-]` (racemic), the outcome in assay [5] was Active.
For the compound `Nc1ncnc2c1ncn2[C@@H]1O[C@H](COP(=O)(O)OP(=O)(O)OP(=O)(O)O)[C@@H](O)[C@H]1O`, the result in assay [6] was inactive.
Regarding `O=C(CCCC[C@@H]1SC[C@@H]2NC(=O)N[C@@H]21)NCCCCCNC(=O)c1cc(SSc2ccc([N+](=O)[O-])c(C(=O)NCCCCCNC(=O)CCCC[C@@H]3SC[C@@H]4NC(=O)N[C@@H]43)c2)ccc1[N+](=O)[O-]`, the result in assay [7] was Active.
Take `CS(=O)(=O)SCCN`: the result in assay [3] was Active.
In the case of `CC(=O)N[C@@H](CS)C(=O)O`, the inhibition entry in assay [8] is “Active”.
Regarding `O=c1onc2cnc3ccccc3n12`, the result in assay [9] was inactive.
Consider `[NH-]c1c[n+](N2CCOCC2)no1`, for which the result in [10] was Active.
As to `O=C1O[C@H]([C@@H](O)CO)C(O)=C1O`, in [11], the inhibition entry is “Active”.
With `c1cc(SSc2ccncc2)ccn1`, the result in [4] was Active.

These data come from ChEMBL document CHEMBL1250444, “Nitric oxide activates TRP channels by cysteine S-nitrosylation” (Nat Chem Biol, 2006).
